ChEMBL document CHEMBL2380230, “Potency switch between CHK1 and MK2: discovery of imidazo[1,2-a]pyrazine- and imidazo[1,2-c]pyrimidine-based kinase inhibitors” (Bioorg Med Chem Lett, 2013)

Columns and labels:
[1] = biological target: T1, Serine/threonine-protein kinase Chk1 (Homo sapiens, UniProt O14757); test: Inhibition of CHK1 (unknown origin)
T1 sequence (O14757 whole entry): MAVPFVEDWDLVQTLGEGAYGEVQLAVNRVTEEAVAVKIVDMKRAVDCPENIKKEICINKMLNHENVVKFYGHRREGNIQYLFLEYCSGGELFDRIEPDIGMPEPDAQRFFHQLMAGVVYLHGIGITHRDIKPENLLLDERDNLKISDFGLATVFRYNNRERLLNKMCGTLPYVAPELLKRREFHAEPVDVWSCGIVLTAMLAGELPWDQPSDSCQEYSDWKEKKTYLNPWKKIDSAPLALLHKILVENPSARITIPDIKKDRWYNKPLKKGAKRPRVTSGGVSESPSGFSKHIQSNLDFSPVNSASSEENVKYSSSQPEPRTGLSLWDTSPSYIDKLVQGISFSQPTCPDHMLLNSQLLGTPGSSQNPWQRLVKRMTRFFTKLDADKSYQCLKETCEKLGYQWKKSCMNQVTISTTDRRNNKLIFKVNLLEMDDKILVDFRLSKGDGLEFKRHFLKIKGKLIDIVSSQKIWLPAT

[2] = biological target: T2, MAP kinase-activated protein kinase 2 (Homo sapiens, UniProt P49137); test: Inhibition of human recombinant MK2
Target sequence in this assay (P49137 whole entry): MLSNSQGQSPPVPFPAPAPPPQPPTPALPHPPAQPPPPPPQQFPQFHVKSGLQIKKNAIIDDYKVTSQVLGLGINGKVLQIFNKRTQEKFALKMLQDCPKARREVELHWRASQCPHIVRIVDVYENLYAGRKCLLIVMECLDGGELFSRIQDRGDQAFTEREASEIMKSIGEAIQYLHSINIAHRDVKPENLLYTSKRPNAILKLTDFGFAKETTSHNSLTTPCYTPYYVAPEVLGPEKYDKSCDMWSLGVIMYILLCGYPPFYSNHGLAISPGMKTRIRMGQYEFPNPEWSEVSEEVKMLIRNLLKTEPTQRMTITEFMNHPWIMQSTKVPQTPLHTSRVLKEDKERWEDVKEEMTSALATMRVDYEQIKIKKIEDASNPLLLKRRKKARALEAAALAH

[3] = biological target: Mitogen-activated protein kinase 1 (Homo sapiens, UniProt P28482); test: Inhibition of human ERK2
Chain of Mitogen-activated protein kinase 1 (P28482 whole entry): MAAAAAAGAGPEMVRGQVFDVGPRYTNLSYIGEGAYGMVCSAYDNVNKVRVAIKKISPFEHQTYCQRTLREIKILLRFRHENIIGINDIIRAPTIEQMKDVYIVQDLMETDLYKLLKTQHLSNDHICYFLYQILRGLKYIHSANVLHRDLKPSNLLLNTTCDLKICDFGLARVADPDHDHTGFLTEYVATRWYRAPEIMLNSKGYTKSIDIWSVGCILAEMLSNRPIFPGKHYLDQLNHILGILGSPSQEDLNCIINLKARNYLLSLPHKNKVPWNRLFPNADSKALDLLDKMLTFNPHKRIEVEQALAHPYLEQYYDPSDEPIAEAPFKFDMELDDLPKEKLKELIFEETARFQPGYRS

[4] = biological target: Insulin-like growth factor 1 receptor (Homo sapiens, UniProt P08069); test: Inhibition of human IGF1R
Chain of Insulin-like growth factor 1 receptor (P08069 31-736 limits assumed): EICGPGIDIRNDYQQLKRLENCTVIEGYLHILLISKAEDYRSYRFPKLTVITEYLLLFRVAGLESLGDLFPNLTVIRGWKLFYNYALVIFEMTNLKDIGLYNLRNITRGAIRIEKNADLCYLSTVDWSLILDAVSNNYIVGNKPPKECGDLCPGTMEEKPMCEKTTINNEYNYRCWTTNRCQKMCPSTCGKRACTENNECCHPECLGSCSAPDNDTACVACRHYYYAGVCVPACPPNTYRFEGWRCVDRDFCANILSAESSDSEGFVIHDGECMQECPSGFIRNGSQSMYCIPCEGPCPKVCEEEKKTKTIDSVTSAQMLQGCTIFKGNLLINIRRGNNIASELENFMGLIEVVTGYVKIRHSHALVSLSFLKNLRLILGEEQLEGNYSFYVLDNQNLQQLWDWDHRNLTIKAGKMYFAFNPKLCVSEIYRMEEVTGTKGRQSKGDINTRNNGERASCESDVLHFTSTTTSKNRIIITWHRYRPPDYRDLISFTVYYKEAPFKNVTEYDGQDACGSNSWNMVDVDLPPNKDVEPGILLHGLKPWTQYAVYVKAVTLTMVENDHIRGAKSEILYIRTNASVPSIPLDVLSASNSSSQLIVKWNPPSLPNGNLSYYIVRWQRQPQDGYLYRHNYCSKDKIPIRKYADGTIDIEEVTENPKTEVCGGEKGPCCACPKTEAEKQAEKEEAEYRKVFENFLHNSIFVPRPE
Chain of Insulin-like growth factor 1 receptor (P08069 741-1367 limits assumed): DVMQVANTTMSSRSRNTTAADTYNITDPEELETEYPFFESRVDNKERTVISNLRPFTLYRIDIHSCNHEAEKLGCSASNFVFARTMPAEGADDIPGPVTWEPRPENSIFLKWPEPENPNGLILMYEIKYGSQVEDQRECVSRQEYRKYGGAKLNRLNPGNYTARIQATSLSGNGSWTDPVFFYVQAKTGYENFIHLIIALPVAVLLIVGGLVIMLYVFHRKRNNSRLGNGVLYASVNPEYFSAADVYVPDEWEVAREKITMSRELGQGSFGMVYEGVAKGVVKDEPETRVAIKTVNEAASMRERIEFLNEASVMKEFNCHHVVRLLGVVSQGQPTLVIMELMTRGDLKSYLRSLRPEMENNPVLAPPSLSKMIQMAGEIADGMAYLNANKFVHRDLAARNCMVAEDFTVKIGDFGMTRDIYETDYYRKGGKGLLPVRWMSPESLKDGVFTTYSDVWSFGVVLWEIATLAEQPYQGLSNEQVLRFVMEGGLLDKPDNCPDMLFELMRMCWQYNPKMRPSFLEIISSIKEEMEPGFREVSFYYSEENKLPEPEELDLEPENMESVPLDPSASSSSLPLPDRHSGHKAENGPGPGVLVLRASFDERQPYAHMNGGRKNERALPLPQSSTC

[5] = biological target: Tyrosine-protein kinase JAK2 (Homo sapiens, UniProt O60674); test: Inhibition of human JAK2
[6] = biological target: Casein kinase I isoform delta (Homo sapiens, UniProt P48730); test: Inhibition of human CSNK1D
Chain of Casein kinase I isoform delta (P48730 whole entry, canonical isoform): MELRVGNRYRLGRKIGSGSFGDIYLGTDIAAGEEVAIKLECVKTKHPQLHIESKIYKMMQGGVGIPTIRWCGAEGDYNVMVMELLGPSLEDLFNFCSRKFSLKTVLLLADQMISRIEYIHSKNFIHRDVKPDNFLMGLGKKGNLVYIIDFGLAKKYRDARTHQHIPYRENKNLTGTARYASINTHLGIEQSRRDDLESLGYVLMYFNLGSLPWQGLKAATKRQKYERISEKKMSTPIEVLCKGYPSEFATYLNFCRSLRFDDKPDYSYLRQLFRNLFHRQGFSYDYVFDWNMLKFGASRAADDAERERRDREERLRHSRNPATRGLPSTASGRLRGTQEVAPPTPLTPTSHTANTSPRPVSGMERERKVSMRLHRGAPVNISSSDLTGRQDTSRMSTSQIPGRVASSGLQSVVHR

[7] = biological target: T3, Inhibitor of nuclear factor kappa-B kinase subunit beta (Homo sapiens, UniProt O14920); test: Inhibition of human IKKB
T3 sequence (O14920 whole entry): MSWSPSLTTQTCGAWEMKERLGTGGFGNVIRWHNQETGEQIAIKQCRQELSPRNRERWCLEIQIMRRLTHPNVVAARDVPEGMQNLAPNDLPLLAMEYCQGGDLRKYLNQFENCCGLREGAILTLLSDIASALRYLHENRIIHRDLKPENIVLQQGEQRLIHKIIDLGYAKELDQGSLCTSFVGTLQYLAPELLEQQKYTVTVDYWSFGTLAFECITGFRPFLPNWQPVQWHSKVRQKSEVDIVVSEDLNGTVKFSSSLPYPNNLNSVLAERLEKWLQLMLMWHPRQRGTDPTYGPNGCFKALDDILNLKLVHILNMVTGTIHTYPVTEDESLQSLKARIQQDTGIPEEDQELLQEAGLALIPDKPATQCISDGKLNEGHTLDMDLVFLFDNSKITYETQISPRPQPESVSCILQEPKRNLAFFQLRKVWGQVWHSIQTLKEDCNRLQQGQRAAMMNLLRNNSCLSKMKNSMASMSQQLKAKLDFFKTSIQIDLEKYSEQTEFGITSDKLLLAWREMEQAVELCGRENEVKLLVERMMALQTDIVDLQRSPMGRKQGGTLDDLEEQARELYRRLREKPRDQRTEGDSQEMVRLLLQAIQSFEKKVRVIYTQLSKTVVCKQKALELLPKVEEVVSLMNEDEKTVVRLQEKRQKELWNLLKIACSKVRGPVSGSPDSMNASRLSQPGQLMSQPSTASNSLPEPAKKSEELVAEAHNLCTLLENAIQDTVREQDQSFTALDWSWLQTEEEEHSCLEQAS

[8] = biological target: Tyrosine-protein kinase Lck (Homo sapiens, UniProt P06239); test: Inhibition of human LCK
Chain of Tyrosine-protein kinase Lck (P06239 whole entry): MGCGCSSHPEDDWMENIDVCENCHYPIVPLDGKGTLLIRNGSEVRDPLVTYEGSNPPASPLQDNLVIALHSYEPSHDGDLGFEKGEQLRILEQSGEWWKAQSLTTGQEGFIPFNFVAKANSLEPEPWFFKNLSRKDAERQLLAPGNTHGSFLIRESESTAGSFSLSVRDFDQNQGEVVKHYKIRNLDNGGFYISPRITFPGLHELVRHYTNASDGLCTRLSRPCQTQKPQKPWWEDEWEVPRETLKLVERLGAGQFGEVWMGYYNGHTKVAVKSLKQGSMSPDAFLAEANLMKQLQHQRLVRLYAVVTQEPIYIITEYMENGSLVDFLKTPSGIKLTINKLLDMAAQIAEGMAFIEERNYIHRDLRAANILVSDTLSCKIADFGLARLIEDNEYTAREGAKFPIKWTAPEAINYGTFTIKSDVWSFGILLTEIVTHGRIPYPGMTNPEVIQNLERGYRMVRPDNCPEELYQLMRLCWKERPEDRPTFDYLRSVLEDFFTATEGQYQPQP

[9] = biological target: RAC-alpha serine/threonine-protein kinase (Homo sapiens, UniProt P31749); test: Inhibition of human AKT1
Chain of RAC-alpha serine/threonine-protein kinase (P31749 whole entry): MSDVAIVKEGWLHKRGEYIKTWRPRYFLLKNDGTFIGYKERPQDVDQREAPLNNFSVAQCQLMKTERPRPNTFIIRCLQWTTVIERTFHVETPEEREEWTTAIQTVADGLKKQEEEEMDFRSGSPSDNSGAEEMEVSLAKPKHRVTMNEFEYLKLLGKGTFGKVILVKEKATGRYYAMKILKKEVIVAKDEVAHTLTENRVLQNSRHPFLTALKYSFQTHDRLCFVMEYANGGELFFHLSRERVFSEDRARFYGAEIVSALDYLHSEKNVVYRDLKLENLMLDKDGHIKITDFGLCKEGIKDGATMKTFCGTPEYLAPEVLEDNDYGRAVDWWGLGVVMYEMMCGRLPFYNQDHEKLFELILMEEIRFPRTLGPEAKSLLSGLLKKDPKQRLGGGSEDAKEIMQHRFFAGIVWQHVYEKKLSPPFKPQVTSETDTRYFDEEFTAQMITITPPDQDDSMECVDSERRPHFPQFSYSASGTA

[10] = biological target: Hepatocyte growth factor receptor (Homo sapiens, UniProt P08581); test: Inhibition of human MET
Chain of Hepatocyte growth factor receptor (P08581 whole entry): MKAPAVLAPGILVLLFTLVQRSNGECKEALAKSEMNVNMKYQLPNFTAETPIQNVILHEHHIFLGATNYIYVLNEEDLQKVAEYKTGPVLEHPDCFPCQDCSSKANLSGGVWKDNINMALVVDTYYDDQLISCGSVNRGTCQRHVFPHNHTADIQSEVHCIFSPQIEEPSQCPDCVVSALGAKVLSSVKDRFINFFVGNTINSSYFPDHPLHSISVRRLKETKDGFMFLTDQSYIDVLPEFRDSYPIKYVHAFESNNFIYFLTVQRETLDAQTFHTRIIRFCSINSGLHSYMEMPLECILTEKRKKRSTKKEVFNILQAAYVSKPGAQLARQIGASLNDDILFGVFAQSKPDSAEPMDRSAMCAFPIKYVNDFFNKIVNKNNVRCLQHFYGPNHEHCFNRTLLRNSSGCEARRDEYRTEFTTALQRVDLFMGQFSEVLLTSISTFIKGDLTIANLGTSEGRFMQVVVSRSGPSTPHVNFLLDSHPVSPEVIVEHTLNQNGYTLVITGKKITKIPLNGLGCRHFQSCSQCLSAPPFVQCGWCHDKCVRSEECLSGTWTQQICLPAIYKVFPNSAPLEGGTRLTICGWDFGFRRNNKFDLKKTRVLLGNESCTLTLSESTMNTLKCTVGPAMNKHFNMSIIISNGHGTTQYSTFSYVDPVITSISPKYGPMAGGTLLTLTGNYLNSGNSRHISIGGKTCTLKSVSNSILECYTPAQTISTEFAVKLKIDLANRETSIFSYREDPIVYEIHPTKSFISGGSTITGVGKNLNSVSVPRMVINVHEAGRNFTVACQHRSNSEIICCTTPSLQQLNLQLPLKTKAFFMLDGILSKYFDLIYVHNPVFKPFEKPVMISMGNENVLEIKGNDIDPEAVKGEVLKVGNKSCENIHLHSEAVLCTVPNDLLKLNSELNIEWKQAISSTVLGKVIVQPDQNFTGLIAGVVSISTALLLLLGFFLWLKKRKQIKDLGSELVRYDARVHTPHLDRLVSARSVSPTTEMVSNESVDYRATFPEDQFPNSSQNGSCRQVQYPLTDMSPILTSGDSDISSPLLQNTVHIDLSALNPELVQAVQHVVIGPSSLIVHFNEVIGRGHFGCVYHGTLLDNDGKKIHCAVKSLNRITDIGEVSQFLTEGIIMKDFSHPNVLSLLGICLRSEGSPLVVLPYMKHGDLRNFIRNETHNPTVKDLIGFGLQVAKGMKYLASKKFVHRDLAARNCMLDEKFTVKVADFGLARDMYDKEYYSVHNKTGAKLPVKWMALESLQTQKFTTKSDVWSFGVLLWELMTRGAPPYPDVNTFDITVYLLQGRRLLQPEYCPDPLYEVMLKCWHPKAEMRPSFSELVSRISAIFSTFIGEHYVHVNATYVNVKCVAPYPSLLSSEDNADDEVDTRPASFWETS

[11] = biological target: T4, Testis-specific serine/threonine-protein kinase 2 (Homo sapiens, UniProt Q96PF2); test: Inhibition of human TSSK2
T4 sequence (Q96PF2 whole entry): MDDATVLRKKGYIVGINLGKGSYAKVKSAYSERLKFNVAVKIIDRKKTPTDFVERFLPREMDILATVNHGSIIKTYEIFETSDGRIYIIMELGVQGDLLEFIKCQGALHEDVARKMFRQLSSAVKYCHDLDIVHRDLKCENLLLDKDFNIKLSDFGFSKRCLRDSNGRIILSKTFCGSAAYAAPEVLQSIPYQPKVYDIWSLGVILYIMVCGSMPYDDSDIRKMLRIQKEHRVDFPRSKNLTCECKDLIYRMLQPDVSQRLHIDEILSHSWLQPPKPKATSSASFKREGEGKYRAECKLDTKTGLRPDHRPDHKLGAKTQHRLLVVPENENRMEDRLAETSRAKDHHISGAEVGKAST

[12] = biological target: T2, MAP kinase-activated protein kinase 2; test: Inhibition of human recombinant MK2 at 10 uM
Target sequence in this assay (P49137 whole entry, looked up): as the sequence (P49137 whole entry) above

| IC50 [1] [µM] | IC50 [2] [µM] | Compound | also measured |
| --- | --- | --- | --- |
| 0.018 | 0.84 | NC(=O)c1ncc(N[C@H]2CCCNC2)c2nc(-c3ccc(Cl)cc3)cn12 | – |
| 5.07 | 0.82 | NC(=O)c1cnc(N[C@H]2CC[C@H](N)CC2)c2nc(-c3ccc(Cl)c(Cl)c3)cn12 | – |
| 0.027 | 0.91 | NC(=O)c1cnc(N[C@H]2CCCNC2)c2nc(-c3ccc(F)cc3)cn12 | – |
| – | 10 | NC(=O)c1cnc(Nc2cccnc2)c2nc(-c3ccc(Cl)cc3)cn12 | – |
| 0.29 | 4.09 | NCCCNc1ncc(C(N)=O)n2cc(-c3ccc(Cl)cc3)nc12 | – |
| 0.69 | 4.15 | NC(=O)c1cnc(NC2CCNCC2)c2nc(-c3ccc(Cl)cc3)cn12 | – |
| – | – | NC(=O)c1cnc(N[C@H]2CC[C@H](N)CC2)c2nc(-c3ccc(Cl)cc3)cn12 | IC50 [3]: > 30 µM; IC50 [4]: 12 µM; IC50 [5]: 13 µM; IC50 [6]: 12 µM; IC50 [7]: > 30 µM; IC50 [8]: 1 µM; IC50 [9]: > 30 µM; IC50 [10]: > 30 µM; IC50 [11]: 12 µM |
| 50 | – | CN1CCC(Nc2ncc(C(N)=O)c3nc(-c4ccc(Cl)cc4)cn23)CC1 | inhibition [12]: 69% |
| 42.1 | – | NC(=O)c1cnc(N[C@@H]2CCNC2)n2cc(-c3ccc(Cl)cc3)nc12 | inhibition [12]: 56% |
| 0.89 | 0.4 | CN[C@H]1CC[C@H](Nc2ncc(C(N)=O)n3cc(-c4ccc(Cl)cc4)nc23)CC1 | – |
| – | 1.98 | NC(=O)c1ncc(N[C@H]2CC[C@H](N)CC2)c2nc(-c3ccc(Cl)cc3)cn12 | – |
| – | – | NC(=O)c1cnc(N[C@H]2CCCNC2)n2cc(-c3ccc(Cl)cc3)nc12 | inhibition [12]: 67% |
| 50 | 4 | NC(=O)c1cnc(N[C@H]2CC[C@H](N)CC2)n2cc(-c3ccc(Cl)cc3)nc12 | – |
| – | 1.9 | NC(=O)c1cnc(N[C@H]2CC[C@@H](N)CC2)c2nc(-c3ccc(Cl)cc3)cn12 | – |
| 50 | – | NC(=O)c1cnc(NCC2CCCNC2)n2cc(-c3ccc(Cl)cc3)nc12 (stereo not given) | inhibition [12]: 61% |
| 0.023 | 0.91 | NC(=O)c1cnc(N[C@H]2CCCNC2)c2nc(-c3ccc4ccccc4c3)cn12 | – |
